This is an account of results in patent US9713332B2, “Glyphosate application for weed control in Brassica” (priority 2013, dated 2017).

In data set [1] the test system is canola event DP-73496-4 (GAT1). Put plainly: Herbicide efficacy field trials, chlorosis / crop response after late stage glyphosate application. Type of data set: in vivo. From the text: Field trials were split plot designed with glyphosate treatments as the main factor and entries as the subplot. Entries were randomized within the split factor, and the split was randomized within the replicate.
The following treatments with glyphosate were used as detailed below at different growth stages. In these tests, 1X glyphosate treatment was 675 g ae/ha, 2X glyphosate treatment was 1350 g ae/ha, 3X glyphosate treatment was 2025 g ae/ha and 4X glyphosate treatment was 2700 g ae/ha. All treatments were applied using a mechanical sprayer. For example, in Treatment 1 below, “2X cotyledon” describes a treatment of 1350 g ae/ha of glyphosate at the cotyledon growth stage. Various treatments were tested over a two year period and are described below.
(§1) • 1. 2X cotyledon • 2. 2X 3-5 leaf stage • 3. 2X cot+2X 3-5 leaf stage • 4. 2X cot+2X bolting BBCH55 • 5. 4X cotyledon • 6. 4X 3-5 leaf stage Treatments Tested in Year 2: • 1. 1X cotyledon+1X 3-5 leaf stage • 2. 2X cotyledon+2X 3-5 leaf stage • 3. 1X cotyledon+1X green bud BBCH51 • 4. 2X cotyledon+2X green bud BBCH51 • 5. 1X cotyledon+1X 10% flower BBCH61 • 6. 2X cotyledon+2X 10% flower BBCH61
Percent chlorosis was determined. Visual rating of chlorosis on plants was taken during the period indicated (i.e. 3-5 days) after spray application. Yellowing of the apical meristem, newest leaves or older leaves indicated herbicide-induced chlorotic injury. 100%=all tissue is yellow, 0%=no signs of yellowing tissue.
Late stage glyphosate applications are applications of glyphosate at later growth stages than on the glyphosate label. […] In Year 1, the expanded window application of glyphosate was 2X cot+2X bolting BBCH55; a 2X treatment during the cotyledon stage and an additional 2X treatment during the plant growth stage where individual flower buds (main inflorescence) are visible but are still closed. In Year 2, 1X cotyledon, 1X green bud BBCH51; 2X cotyledon, 2X green bud BBCH51; 1X cotyledon, 1X 10% flower BBCH61; and 2X cotyledon, 2X 10% flower BBCH61 expanded window treatments were included.

Data set [2] relates to canola event DP-73496-4 (GAT1). Put plainly: Herbicide efficacy field trials, determination of yield. The format is in vivo. How it is done:
Field trials were split plot designed with glyphosate treatments as the main factor and entries as the subplot. The split-plot design was used since more than one glyphosate treatment in each location was evaluated, where a different treatment to an individual plot was applied. In split-plot, the levels of the main-plot factor (glyphosate treatments) and the sub-plot factors (individual event entries) within the main-plots were randomized.
The following treatments with glyphosate were used as detailed below at different growth stages. In these tests, 1X glyphosate treatment was at 675 g ae/ha, 2X glyphosate treatment was at 1350 g ae/ha, 3X glyphosate treatment was at 2025 g ae/ha and 4X glyphosate treatment was at 2700 g ae/ha as active ingredient of glyphosate. All treatments were applied using a mechanical sprayer. For example, in Treatment 1 below, “2X cotyledon” describes a treatment of 1350 g ae/ha of glyphosate at the cotyledon growth stage. Various treatments were tested over a two year period and are described below.
as §1
To reduce the growth of weeds in the control plots, conventional herbicides or mechanical pulling of weeds were used as needed. There was no glyphosate applied to the control plots and was used as the control/base to which other glyphosate treatments were compared. The control plots may have had one or more weeds present during the growing season. Control is based on conventional herbicides that are registered for use in all canola.
Plots were considered desiccated when 60-70% of the seed had turned from green to black colour. Combining occurred 5-14 days after desiccation depending on the weather conditions. Each plot was harvested individually. Moisture and weight were recorded directly on the combine. Yield was determined for the GAT1 event.
Various locations were used in the test. Trials were evaluated across 10 locations in both Year 1 and Year 2. Locations included several sites in the short, mid, and long season zones across both years.
The event that was tested was canola event DP-73496-4 (GAT1) (PCT International Patent Application No. PCT/US2010/058011, incorporated by reference).
Late stage glyphosate applications are applications of glyphosate at later growth stages than on the glyphosate label. […]

The subject of data set [3] is GAT1 and GAT2 events. The data set can be described thus: Herbicide efficacy trials in 9 locations, herbicide-induced necrosis and chlorosis injury. Type of data set: in vivo, Brassica. Here is the method: (§2) Transgenic events expressing GAT1 and GAT2 genes were tested herein. GAT1, as mentioned herein is the Brassica GAT event DP-073496-4 (PCT International Patent Application No. PCT/US2010/058011, incorporated by reference). GAT2, as mentioned herein is another transgenic Brassica line expressing a GAT variant.
Chlorosis percent injury describes a visual rating of the percentage of the plant with a yellowing of the apical meristem, newest leaves or older leaves, where 100% denotes that all tissue is yellow, and 0% denotes the absence of yellowing tissue in plants treated with herbicide.
GAT2 events were subjected to herbicide efficacy trials along with the GAT1 as diagonal check in 9 different locations. The herbicide efficacy trials consisted of 6 treatments that included: a control with no glyphosate, 2X, 4X or 8X glyphosate administered at the 3-5 leaf stage (1X=675 g ae/ha), a 2X administered during the 3-5 leaf stage and during the green bud stage (+2X Green Bud), and a 2X administered during the 3-5 leaf stage and during 10% bloom (+2X 10% Bloom). Herbicide-induced necrosis and chlorosis injury was recorded at leaf stages 5, 10, 21 and 30 DAT (days after treatment). […] Yield from different treatments was expressed as a percent to the 2X treatment at the 3 to 5 leaf stage. […] The application of 4X glyphosate at the 3-5 leaf stage led to a 6 to 8% decrease in yield compared to the 2X treatment, and at the 8X rate, yield decreased from 10 to 12% in treated events compared to the 2X treatment (FIG. 3).

For data set [4], the system named is GAT1 and GAT2 events. Put plainly: Herbicide efficacy trials in 9 locations, yield as percent to the 2X treatment at the 3 to 5 leaf stage. Type of data set: in vivo, Brassica. The conditions noted are these: 2X at the 3-5 leaf stage and 2X during green bud or 10% bloom stage; FIG. 3. How it is done: as §2
Percentage of yield relative to 2X describes the yield obtained for the GAT events treated with respective glyphosate herbicide treatments compared to the same GAT events subjected to a solution containing 2X glyphosate treatment at the 3 to 5 leaf stage, expressed as a percentage of the 2X treatment at the 3 to 5 leaf stage.
GAT2 events were subjected to herbicide efficacy trials along with the GAT1 as diagonal check in 9 different locations. The herbicide efficacy trials consisted of 6 treatments that included: a control with no glyphosate, 2X, 4X or 8X glyphosate administered at the 3-5 leaf stage (1X=675 g ae/ha), a 2X administered during the 3-5 leaf stage and during the green bud stage (+2X Green Bud), and a 2X administered during the 3-5 leaf stage and during 10% bloom (+2X 10% Bloom). Herbicide-induced necrosis and chlorosis injury was recorded at leaf stages 5, 10, 21 and 30 DAT (days after treatment). […] Yield from different treatments was expressed as a percent to the 2X treatment at the 3 to 5 leaf stage. […]

Molecules are shown by their SMILES.

Regarding `O=C(O)CNCP(=O)(O)O` [glyphosate], the chlorosis in data set [1] (Year 1, 2X Cot and 2X Bolting BBCH55 (2X = 1350 g ae/ha), all three hybrids, one location) was 1%; in data set [1] (Year 1, 2X Cot and 2X Bolting BBCH55, one hybrid background, second location), 3%. The “recovery of transient chlorosis” value in data set [1] (Year 1, 2X Cot and 2X Bolting BBCH55, 10 days after glyphosate application) was “Full recovery”. Also, the crop response result is recorded as “no crop response” in data set [1] (Year 1, 2X Cot and 2X Bolting BBCH55, remaining eight locations); “did not have any crop response” in data set [1] (Year 2, extended window glyphosate treatments, four GAT-expressing canola backgrounds). In addition, the “yield compared to the control treatment” value in data set [2] (Year 1, 2X Cot and 2X Bolting BBCH55) was “not significantly different”; in data set [2] (Year 2, late split applications at 2X glyphosate (1350 g ae/ha), BBCH51 and BBCH61) it was “did not result in yield reduction”; in data set [2] (Year 2, split applications 1X Cot and 1X BBCH51 (green bud), 1X Cot and 1X BBCH61 (10% flower), four backgrounds, 1X = 675 g ae/ha) it was “did not result in yield reduction”. The “yield of GAT1 compared to the controls” value in data set [2] (at X treatment) is recorded as “did not show a reduction in yield”. Further, the chlorotic injury entry in the data set with GAT1 and GAT2 events [3] (both GAT1 and GAT2 events, even at 8X spray rates, and during green bud and 10% bloom, FIG. 2) was “Negligible”. Besides, the herbicide-induced necrotic injury entry with GAT1 and GAT2 events [3] (even at 8X spray rates (1X = 675 g ae/ha), FIG. 1) is “minimally observed”. In addition, the “herbicide-induced injury (necrosis, chlorosis) beyond 10 DAT” value in the data set on GAT1 and GAT2 events [3] (rated 5, 10, 21 and 30 DAT, 2X, 4X, 8X at 3-5 leaf, 2X+2X green bud, 2X+2X 10% bloom) is reported as “No injury was observed”. Besides, in the data set on GAT1 and GAT2 events [4], the “differences in yield compared to the 2X treatment at 3-5 leaf stage” value is reported as “no appreciable differences in yield”.
